Laboratory results taken from patent publication US10357493B2, “Metalloenzyme inhibitor compounds” (Selenity Therapeutics (Bermuda), Ltd., priority 2017, dated 2019).

Columns and labels:
HDAC6 = HDAC6 (Homo sapiens (Human), UniProt Q9UBN7); experiment: HDAC6 enzymatic assay; format: biochemical; details: read-out: Human HDAC6 IC50
Procedure: (§1) All enzymatic reactions were conducted in duplicate at room temperature for 17 hours in a 50 μl mixture containing HDAC assay buffer (50 mM Tris-HCl, pH 7.4, 137 mM NaCl, 2.7 mM KCl, 0.05% Tween 20, 5 μg BSA), an HDAC substrate, an HDAC enzyme, and a test compound. Compound dilution was prepared ten-fold higher than the final concentration of the compounds with 10% DMSO in HDAC assay buffer and 5 μl of the dilution was added to a 50 μl reaction so that the final concentration of DMSO is 1% in all of reactions. After enzymatic reactions, 50 μl of HDAC Developer was added to each well and the plate was incubated at room temperature for an additional 20 minutes. Fluorescence intensity was measured at an excitation of 360 nm and an emission of 460 nm using a Tecan Infinite M1000 or Biotek Synergy microplate reader.
(§2) The fluorescent intensity data were analyzed using the computer software, Graphpad Prism. In the absence of the compound, the fluorescent intensity (Ft) in each data set was defined as 100% activity. In the absence of HDAC, the fluorescent intensity (Fb) in each data set was defined as 0% activity. The percent activity in the presence of each compound was calculated according to the following equation: % activity=(F−Fb)/(Ft−Fb), where F=the fluorescent intensity in the presence of the compound.
(§3) The values of % activity versus a series of compound concentrations were then plotted using non-linear regression analysis of Sigmoidal dose-response curve generated with the equation Y=B+(T−B)/1+10((Log EC50−X)×Hill Slope), where Y=percent activity, B=minimum percent activity, T=maximum percent activity, X=logarithm of compound and Hill Slope=slope factor or Hill coefficient. The IC50 value was determined by the concentration causing a half-maximal percent activity.
(§4) HDAC1 enzymatic assays contained 0.5 ng HDAC1 and 10 uM of HDAC substrate. HDAC2 enzymatic assays contained 0.5 ng HDAC2 and 10 uM of HDAC substrate. HDAC3 enzymatic assays contained 0.4 ng HDAC3/NCOR2 and 10 uM of HDAC substrate. HDAC4 enzymatic assays contained 0.02 ng HDAC4 and 2 uM of HDAC substrate. HDAC5 enzymatic assays contained 0.5 ng HDAC5 and 2 uM of HDAC substrate. HDAC6 enzymatic assays contained 2 ng HDAC6 and 10 uM of HDAC substrate. HDAC7 enzymatic assays contained 0.05 ng HDAC7 and 2 uM of HDAC substrate. HDAC8 enzymatic assays contained 5 ng HDAC8 and 2 uM of HDAC substrate. HDAC9 enzymatic assays contained 1 ng HDAC9 and 2 uM of HDAC substrate. HDAC10 enzymatic assays contained 75 ng HDAC10 and 10 uM of HDAC substrate. HDAC11 enzymatic assays contained 5 ng HDAC11 and 2 uM of HDAC substrate.

HDAC1 = HDAC1 (Homo sapiens (Human), UniProt Q13547); experiment: HDAC1 enzymatic assay; format: biochemical; details: read-out: Human HDAC1 IC50
Chain of HDAC1 (Q13547 whole entry): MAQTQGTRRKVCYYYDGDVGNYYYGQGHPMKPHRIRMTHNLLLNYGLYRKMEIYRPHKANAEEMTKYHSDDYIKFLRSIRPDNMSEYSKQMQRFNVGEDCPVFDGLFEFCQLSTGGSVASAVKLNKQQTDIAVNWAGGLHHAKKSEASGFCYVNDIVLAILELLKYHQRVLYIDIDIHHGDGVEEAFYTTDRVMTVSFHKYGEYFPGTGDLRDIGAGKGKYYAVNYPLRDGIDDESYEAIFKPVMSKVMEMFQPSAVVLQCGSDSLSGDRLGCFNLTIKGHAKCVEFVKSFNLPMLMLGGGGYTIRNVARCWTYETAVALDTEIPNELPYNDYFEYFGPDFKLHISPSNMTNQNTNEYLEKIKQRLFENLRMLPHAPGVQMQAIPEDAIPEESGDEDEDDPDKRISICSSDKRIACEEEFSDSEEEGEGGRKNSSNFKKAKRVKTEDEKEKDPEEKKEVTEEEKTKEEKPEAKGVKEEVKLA
Procedure: as §1, §2, §3, §4

Chain of HDAC6 (Q9UBN7 whole entry): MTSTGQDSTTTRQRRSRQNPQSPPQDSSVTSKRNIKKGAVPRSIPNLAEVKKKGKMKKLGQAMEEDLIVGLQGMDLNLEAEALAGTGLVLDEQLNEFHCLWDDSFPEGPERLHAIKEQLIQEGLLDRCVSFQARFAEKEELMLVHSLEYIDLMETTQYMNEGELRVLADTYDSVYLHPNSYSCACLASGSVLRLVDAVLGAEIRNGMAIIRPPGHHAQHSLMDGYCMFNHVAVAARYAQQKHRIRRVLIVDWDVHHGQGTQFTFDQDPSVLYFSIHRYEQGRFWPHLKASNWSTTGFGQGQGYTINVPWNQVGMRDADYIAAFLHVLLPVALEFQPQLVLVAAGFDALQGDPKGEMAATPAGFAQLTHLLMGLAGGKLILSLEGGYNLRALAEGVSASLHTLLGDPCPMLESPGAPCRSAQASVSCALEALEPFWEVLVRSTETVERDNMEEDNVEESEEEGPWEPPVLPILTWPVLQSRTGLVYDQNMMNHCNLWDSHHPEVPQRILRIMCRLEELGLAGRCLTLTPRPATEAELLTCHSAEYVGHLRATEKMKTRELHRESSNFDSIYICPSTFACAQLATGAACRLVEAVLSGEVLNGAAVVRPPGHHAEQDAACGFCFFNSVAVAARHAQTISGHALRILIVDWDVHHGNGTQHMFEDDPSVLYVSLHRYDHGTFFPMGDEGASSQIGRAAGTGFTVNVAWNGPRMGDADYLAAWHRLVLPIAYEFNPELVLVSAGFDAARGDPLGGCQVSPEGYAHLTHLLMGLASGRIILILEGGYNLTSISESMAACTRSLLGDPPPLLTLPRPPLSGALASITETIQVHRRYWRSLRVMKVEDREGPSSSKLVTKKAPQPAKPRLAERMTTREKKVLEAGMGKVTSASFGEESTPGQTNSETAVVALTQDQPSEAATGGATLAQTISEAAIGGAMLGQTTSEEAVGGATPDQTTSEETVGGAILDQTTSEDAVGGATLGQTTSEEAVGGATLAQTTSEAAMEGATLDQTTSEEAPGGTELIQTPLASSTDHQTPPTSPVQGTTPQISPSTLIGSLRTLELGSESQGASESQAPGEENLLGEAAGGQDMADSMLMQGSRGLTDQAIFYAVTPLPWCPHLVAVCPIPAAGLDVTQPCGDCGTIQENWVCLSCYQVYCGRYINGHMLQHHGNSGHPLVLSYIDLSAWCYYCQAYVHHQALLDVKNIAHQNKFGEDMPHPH

Row | SMILES | IC50 (HDAC6) [nM] | IC50 (HDAC1) [nM]
1 | CS(=O)(=O)NCC(Nc1ncc(-c2nnc(C(F)F)o2)cn1)C1CC1 (single isomer, unassigned) [123(−), N-(2-cyclopropyl-2-((5-(5-(difluoromethyl)-1,3,4-oxadiazol-2-yl)pyrimidin-2-yl)amino)ethyl)methanesulfonamide] | 1100 | > 30000
2 | CN(CC(Nc1ncc(-c2nnc(C(F)F)o2)cn1)c1ccc(F)cc1F)S(C)(=O)=O (single isomer, unassigned) [137(+), N-(2-((5-(5-(difluoromethyl)-1,3,4-oxadiazol-2-yl)pyrimidin-2-yl)amino)-2-(2,4-difluorophenyl)ethyl)-N-methylmethanesulfonamide] | 41 | > 30000
3 | CCS(=O)(=O)NCC(Nc1ncc(-c2nnc(C(F)F)o2)cn1)c1ccc(F)cc1F (single isomer, unassigned) [139(+), N-(2-((5-(5-(difluoromethyl)-1,3,4-oxadiazol-2-yl)pyrimidin-2-yl)amino)-2-(2,4-difluorophenyl)ethyl)ethanesulfonamide] | 33 | > 30000
4 | CS(=O)(=O)CC(Nc1ncc(-c2nnc(C(F)F)o2)cn1)c1ccc(F)cc1 (single isomer, unassigned) [161(−), 5-(5-(difluoromethyl)-1,3,4-oxadiazol-2-yl)-N-(1-(4-fluorophenyl)-2-(methylsulfonyl)ethyl)pyrimidin-2-amine] | 870 | > 30000
5 | Fc1ccc(C(COCC(F)(F)F)Nc2ncc(-c3nnc(C(F)F)o3)cn2)cc1 (single isomer, unassigned) [162(+), 5-(5-(difluoromethyl)-1,3,4-oxadiazol-2-yl)-N-(1-(4-fluorophenyl)-2-(2,2,2-trifluoroethoxy)ethyl)pyrimidin-2-amine] | 130 | > 30000
6 | Fc1ccc(C(COCC(F)(F)F)Nc2ncc(-c3nnc(C(F)F)o3)cn2)cc1 (single isomer, unassigned) [162(−), 5-(5-(difluoromethyl)-1,3,4-oxadiazol-2-yl)-N-(1-(4-fluorophenyl)-2-(2,2,2-trifluoroethoxy)ethyl)pyrimidin-2-amine] | 300 | > 30000
7 | Fc1ccc(C(COCC(F)(F)F)Nc2ncc(-c3nnc(C(F)F)o3)cn2)c(F)c1 (single isomer, unassigned) [163(+), 5-(5-(difluoromethyl)-1,3,4-oxadiazol-2-yl)-N-(1-(2,4-difluorophenyl)-2-(2,2,2-trifluoroethoxy)ethyl)pyrimidin-2-amine] | 110 | > 30000
8 | Fc1ccc(C(COCC(F)(F)F)Nc2ncc(-c3nnc(C(F)F)o3)cn2)c(F)c1 (single isomer, unassigned) [163(−), 5-(5-(difluoromethyl)-1,3,4-oxadiazol-2-yl)-N-(1-(2,4-difluorophenyl)-2-(2,2,2-trifluoroethoxy)ethyl)pyrimidin-2-amine] | 410 | > 30000
9 | CCS(=O)(=O)N(CC(Nc1ncc(-c2nnc(C(F)F)o2)cn1)c1ccc(F)cc1)CC(F)(F)F (single isomer, unassigned) [164(+), N-(2-((5-(5-(difluoromethyl)-1,3,4-oxadiazol-2-yl)pyrimidin-2-yl)amino)-2-(4-fluorophenyl)ethyl)-N-(2,2,2-trifluoroethyl)ethanesulfonamide] | 110 | > 30000
10 | CCS(=O)(=O)N(CC(Nc1ncc(-c2nnc(C(F)F)o2)cn1)c1ccc(F)cc1)CC(F)(F)F (single isomer, unassigned) [164(−), N-(2-((5-(5-(difluoromethyl)-1,3,4-oxadiazol-2-yl)pyrimidin-2-yl)amino)-2-(4-fluorophenyl)ethyl)-N-(2,2,2-trifluoroethyl)ethanesulfonamide] | 230 | > 30000
11 | O=S(=O)(C1CC1)N(CC(Nc1ncc(-c2nnc(C(F)F)o2)cn1)c1ccc(F)cc1)CC(F)(F)F (single isomer, unassigned) [165(+), N-(2-((5-(5-(difluoromethyl)-1,3,4-oxadiazol-2-yl)pyrimidin-2-yl)amino)-2-(4-fluorophenyl)ethyl)-N-(2,2,2-trifluoroethyl)cyclopropanesulfonamide] | 110 | > 30000
12 | O=S(=O)(C1CC1)N(CC(Nc1ncc(-c2nnc(C(F)F)o2)cn1)c1ccc(F)cc1)CC(F)(F)F (single isomer, unassigned) [165(−), N-(2-((5-(5-(difluoromethyl)-1,3,4-oxadiazol-2-yl)pyrimidin-2-yl)amino)-2-(4-fluorophenyl)ethyl)-N-(2,2,2-trifluoroethyl)cyclopropanesulfonamide] | 160 | > 30000
13 | CC(=O)N(C)CC(Nc1ncc(-c2nnc(C(F)F)o2)cn1)c1ccc(F)cc1 (single isomer, unassigned) [166(+), N-(2-((5-(5-(difluoromethyl)-1,3,4-oxadiazol-2-yl)pyrimidin-2-yl)amino)-2-(4-fluorophenyl)ethyl)-N-methylacetamide] | 93 | > 30000
14 | CC(=O)N(C)CC(Nc1ncc(-c2nnc(C(F)F)o2)cn1)c1ccc(F)cc1 (single isomer, unassigned) [166(−), N-(2-((5-(5-(difluoromethyl)-1,3,4-oxadiazol-2-yl)pyrimidin-2-yl)amino)-2-(4-fluorophenyl)ethyl)-N-methylacetamide] | 360 | > 30000
15 | CC(=O)N(CC(Nc1ncc(-c2nnc(C(F)F)o2)cn1)c1ccc(F)cc1)CC(F)(F)F (single isomer, unassigned) [167(+), N-(2-((5-(5-(difluoromethyl)-1,3,4-oxadiazol-2-yl)pyrimidin-2-yl)amino)-2-(4-fluorophenyl)ethyl)-N-(2,2,2-trifluoroethyl)acetamide] | 110 | > 30000
16 | CC(=O)N(CC(Nc1ncc(-c2nnc(C(F)F)o2)cn1)c1ccc(F)cc1)CC(F)(F)F (single isomer, unassigned) [167(−), N-(2-((5-(5-(difluoromethyl)-1,3,4-oxadiazol-2-yl)pyrimidin-2-yl)amino)-2-(4-fluorophenyl)ethyl)-N-(2,2,2-trifluoroethyl)acetamide] | 690 | > 30000
17 | O=C(NCC(Nc1ncc(-c2nnc(C(F)F)o2)cn1)c1ccc(F)cc1)C1CC1 (single isomer, unassigned) [168(−), N-(2-((5-(5-(difluoromethyl)-1,3,4-oxadiazol-2-yl)pyrimidin-2-yl)amino)-2-(4-fluorophenyl)ethyl)cyclopropanecarboxamide] | 750 | > 30000
18 | CN(CC(Nc1ncc(-c2nnc(C(F)F)o2)cn1)c1ccc(F)cc1)C(=O)C1CC1 (single isomer, unassigned) [169(+), N-(2-((5-(5-(difluoromethyl)-1,3,4-oxadiazol-2-yl)pyrimidin-2-yl)amino)-2-(4-fluorophenyl)ethyl)-N-methylcyclopropanecarboxamide] | 77 | > 30000
19 | CN(CC(Nc1ncc(-c2nnc(C(F)F)o2)cn1)c1ccc(F)cc1)C(=O)C1CC1 (single isomer, unassigned) [169(−), N-(2-((5-(5-(difluoromethyl)-1,3,4-oxadiazol-2-yl)pyrimidin-2-yl)amino)-2-(4-fluorophenyl)ethyl)-N-methylcyclopropanecarboxamide] | 1100 | > 30000
